Structures can show the parent of a compound that is named as a salt. Where two headings read alike, the source gives them in different places.
Tests used:
[1] = 2% stearic acid; for in vitro elution rate: nine pellets, 100 mL PBS at 37° C.; for release rate: about 250 mg API, up to 36 weeks
Description: In one embodiment of the present invention, tizanidine is delivered to the subject at a target range of about 100 micrograms/day to about 10,000 micrograms/day. For example, tizanidine is delivered to the subject at a target range of about 100 to about 5,000 micrograms/day, or about 200 to about 4,000 micrograms per day, or about 300 to about 3,000 micrograms per day or about 400 to about 2,000 micrograms per day. The testing method set forth in the examples to determine the elution rates for compositions comprising tizanidine includes placing the implants in an elution bath consisting of PBS or 0.9% saline at 37° C. Weekly exchanges of the elution media are then analyzed by HPLC for the durations given.
The implants were sterilized by gamma irradiation and placed in an elution bath consisting of 100 mL PBS at 37° C.
A discrete solid dosage form was prepared as follows. The drug implants were manufactured using PEBAX® 2533 and PEBAX® 3533, as the tubing material and tizanidine free base as the API. […] A total of about 250 mg tizanidine free base were loaded into the implant with 10% croscarmellose and 2% stearic acid. The implant were sterilized by gamma irradiation and placed in an elution batch consisting of 200 mL 0.9% saline at 37° C.
A discrete solid dosage form was prepared as follows. Various polyurethanes were used as the tubing material (i.e., TECOFLEX® EG-80A, TECOFLEX® EG-85A, TECOFLEX® EG-93A, TECOPHILIC® HP-60D-05, and TECOPHILIC® HP-60D-10 polyurethanes) and tizanidine hydrochloride as the API. […] A total of about 380 mg tizanidine hydrochloride were loaded into the implant with 10% croscarmellose and 2% stearic acid. The implants were sterilized by gamma irradiation and placed in an elution batch consisting of 200 mL PBS at 37° C. Weekly exchanges of the elution media were analyzed by HPLC over 5 weeks.
The drug implants were manufactured as described in Example 3, except tizanidine free base was used as the API instead of tizanidine HCl. […] A total of about 250 mg tizanidine free base were loaded into the implants with 10% croscarmellose and 2% stearic acid. The implants were sterilized by gamma irradiation and placed in an elution batch consisting of 200 mL PBS at 37° C. Weekly exchanges of the elution media were analyzed by HPLC for up to 36 weeks.

[2] = oral dosage form, approximate; cited from earlier work

drug release from the implants (elution rate in vitro) ([1]; all polyurethanes investigated (TECOFLEX EG-80A, EG-85A, EG-93A, TECOPHILIC HP-60D-05, HP-60D-10), about 380 mg API, 10% croscarmellose, 200 mL PBS at 37° C., 5 weeks)	in vitro elution rate ([1]; TECOFLEX EG-80A implant, 5% croscarmellose, 405 mg API, week 2)	in vitro elution rate ([1]; TECOFLEX EG-80A implant, 5% croscarmellose, 405 mg API, week 27)	in vitro elution rate ([1]; TECOFLEX EG-80A implant, 15% croscarmellose, 360 mg API, week 2)	in vitro elution rate ([1]; TECOFLEX EG-80A implant, 15% croscarmellose, 360 mg API, week 27)	release rate ([1]; TECOFLEX EG-80A implant, 10% croscarmellose, 200 mL PBS at 37° C.)	release rate ([1]; TECOFLEX EG-93A implant, 10% croscarmellose, 200 mL PBS at 37° C.)	Compound	oral bioavailability [2]
below 100 μg per day	–	–	–	–	–	–	Clc1ccc2nsnc2c1NC1=NCCN1 [tizanidine HCl, tizanidine hydrochloride]	20-40%
–	about 1,200 μg/day	about 900 μg/day	about 1,400 μg/day	about 1,250 μg/day	about 900 μg per day	about 100 μg per day	Clc1ccc2nsnc2c1NC1=NCCN1 [tizanidine free base, 5-chloro-N-(4,5-dihydro-1H-imidazol-2-yl)benzo[c][1,2,5]thiadiazol-4-amine]	–

— patent US9011910B2, “Implantable tizanidine compositions and methods of treatment thereof” (Endo Pharmaceuticals Solutions Inc., priority 2011, dated 2015)
